Consider 3 compounds from ChEMBL document CHEMBL4402583, “Rational Substitution of ε-Lysine for α-Lysine Enhances the Cell and Membrane Selectivity of Pore-Forming Melittin” (J Med Chem, 2020).

≈ marks a conversion by molar mass, not a printed value. Calls of active or inactive are those of the source. The rule behind the calls is not given here.

Series [1] relates to Staphylococcus aureus. The series is described as follows: In vivo antibacterial activity against Staphylococcus aureus ATCC 29213 infected in C57BL/6 mouse assessed as reduction in bacterial burden by measuring log10 CFU/cornea at 0.3% administered topically as two times on day 1, four times on day 2 and two times on day 3 measured at 48 hrs post-final dose by 10 fold serial dilution method (reference value: 6.5 +/- 0.7 log10CFU). It counts as functional.

Series [2] concerns Acinetobacter baumannii. The experiment in a line: Resistance index, ratio of MIC for Acinetobacter baumannii ATCC 19606 measured after 4 serial passages by broth microdilution method to MIC for Acinetobacter baumannii ATCC 19606 incubated for 24 hrs by broth microdilution method. It counts as functional, organism-based. The note with it: ATCC 19606 = CIP 70.34 = JCM 6841.
Series [3] is described as follows: Cytotoxicity against HDF cells assessed as minimum cytotoxic concentration incubated for 24 hrs by MTS assay. It counts as cell-based. The note with it: human, HDF cells (NHDF, human dermal fibroblasts).
The subject of series [4] is Pseudomonas aeruginosa. The experiment in a line: Antibacterial activity against Pseudomonas aeruginosa assessed as reduction in bacterial growth incubated for 24 hrs by broth microdilution method. It counts as functional.
Series [5] has as its system Staphylococcus aureus. The series is described as follows: Antibacterial activity against Staphylococcus aureus assessed as reduction in bacterial growth incubated for 24 hrs by broth microdilution method. The format is functional.
The subject of series [6] is Candida albicans. The experiment in a line: Antifungal activity against Candida albicans assessed as reduction in fungal growth incubated for 24 hrs by broth microdilution method. The format is functional.
Series [7] deals with Lipid bilayer. The series is described as follows: Induction of pore formation in negatively charged DOPE/DOPG large unilamellar vesicles assessed as calcein release at 0.39 to 50 uM measured for 60 mins by fluorescence based assay.
For series [8], the system named is Lipid bilayer. The series is described as follows: Induction of pore formation in zwitterionic DOPC/cholesterol large unilamellar vesicles assessed as calcein release at 0.39 to 50 uM measured for 60 mins by fluorescence based assay.
For series [9], the system named is NHDF. The series is described as follows: Cytotoxicity against HDF cells assessed as reduction in metabolic activity at 32 ug/ml incubated for 24 hrs by MTS assay. The note with it: human. The format is ADME, cell-based.
In series [10] the test system is NHDF. The series is described as follows: Cytotoxicity against HDF cells at 31.25 ug/ml incubated for 24 hrs by Alexa Fluor […] phalloidin-FITC/Hoescht dye staining based fluorescence microscopic analysis. The note with it: human. The format is cell-based.
Series [11] concerns Lipid bilayer. The series is described as follows: Induction of pore formation in negatively charged DOPE/DOPG large unilamellar vesicles assessed as ratio of peptide to lipid molar ratio that induces 50% calcein leakage measured for 60 mins by calcein dequenching based fluorescence based assay.
The subject of series [12] is Lipid bilayer. The series is described as follows: Binding affinity to zwitterionic DOPC/cholesterol large unilamellar vesicles assessed as transformation of peptide secondary structure to alpha-helical conformation by CD spectropolarimetry.
Series [13] is described as follows: Cytotoxicity against HDF cells assessed as minimum cytotoxic concentration incubated for 24 hrs by Alexa Fluor […] phalloidin-FITC/Hoescht dye staining based fluorescence microscopic analysis. The format is cell-based. As to conditions: human, HDF cells (NHDF, human dermal fibroblasts).

As for `COc1c(N2C[C@@H]3CCCN[C@@H]3C2)c(F)cc2c(=O)c(C(=O)O)cn(C3CC3)c12` [MOXIFLOXACIN], the Activity in series [1] stood at 3.7 log10CFU.
With GENTAMICIN, the Ratio in [2] came out at 16.
For `CC[C@H](C)[C@H](NC(=O)CN)C(=O)NCC(=O)N[C@@H](C)C(=O)N[C@H](C(=O)N[C@@H](CC(C)C)C(=O)N[C@@H](CCCCN)C(=O)N[C@H](C(=O)N[C@@H](CC(C)C)C(=O)N[C@H](C(=O)N[C@H](C(=O)NCC(=O)N[C@@H](CC(C)C)C(=O)N1CCC[C@H]1C(=O)N[C@@H](C)C(=O)N[C@@H](CC(C)C)C(=O)N[C@H](C(=O)N[C@@H](CO)C(=O)N[C@@H](Cc1c[nH]c2ccccc12)C(=O)N[C@H](C(=O)NCCC[C@@H](CN)C(=O)N[C@@H](CCCNC(=N)N)C(=O)N[C@@H](CCCCN)C(=O)N[C@@H](CCCNC(=N)N)C(=O)N[C@@H](CCC(N)=O)C(=O)N[C@@H](CCC(N)=O)C(N)=O)[C@@H](C)CC)[C@@H](C)CC)[C@@H](C)O)[C@@H](C)O)C(C)C)C(C)C`, the MCC at 24 h in [3] and in series [13] was over 16 µg/mL throughout. Moreover, the MIC in series [4] was in the range of 4 to 16 µg/mL (≈ 1.41 to 5.62 µM); in [5], 4 to 8 µg/mL (≈ 1.41 to 2.81 µM); in series [6], 4 to 8 µg/mL (≈ 1.41 to 2.81 µM). The outcome in series [7] and in series [8] was Active. The Activity result in [9] and in [10] was “Toxic” each time. For the same compound, the Ratio in series [11] is 0.24. In [12], the outcome was inactive.
